Assay results from patent US20190352276A1, “INHIBITORS OF BRUTON'S TYROSINE KINASE” (Joint Stock Company "Biocad", priority 2016, published 2019).
Where two headings read alike, the source gives them in different places.

How the values were obtained:
[1] = biological target: T1, recombinant Btk kinase enzyme (Homo sapiens, UniProt Q06187); assay: In vitro inhibition of Btk kinase activity (ADP-Glo); assay type: biochemical; settings: read-out: IC50 kinase BTK
T1 construct: purchased SignalChem B10-10H
T1 sequence (Q06187 whole entry): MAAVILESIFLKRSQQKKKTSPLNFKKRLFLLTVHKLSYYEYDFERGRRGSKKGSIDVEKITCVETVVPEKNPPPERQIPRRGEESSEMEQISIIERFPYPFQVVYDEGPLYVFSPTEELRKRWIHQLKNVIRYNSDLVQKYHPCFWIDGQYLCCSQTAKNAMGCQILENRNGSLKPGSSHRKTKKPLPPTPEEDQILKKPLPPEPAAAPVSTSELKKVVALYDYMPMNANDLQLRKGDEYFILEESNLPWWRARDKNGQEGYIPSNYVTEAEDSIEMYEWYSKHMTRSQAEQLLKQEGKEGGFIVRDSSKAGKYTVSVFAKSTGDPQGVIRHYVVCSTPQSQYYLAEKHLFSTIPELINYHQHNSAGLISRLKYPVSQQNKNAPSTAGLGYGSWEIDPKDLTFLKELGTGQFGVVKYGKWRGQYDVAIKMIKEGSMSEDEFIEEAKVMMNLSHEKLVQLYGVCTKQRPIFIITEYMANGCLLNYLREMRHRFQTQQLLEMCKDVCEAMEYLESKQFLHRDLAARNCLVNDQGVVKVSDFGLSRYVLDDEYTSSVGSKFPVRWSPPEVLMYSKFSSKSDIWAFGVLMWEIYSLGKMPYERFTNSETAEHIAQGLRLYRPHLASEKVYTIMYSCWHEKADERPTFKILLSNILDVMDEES
How it was run: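 Recombinant human Btk phosphorylating Poly(Glu,Tyr 4:1) substrate (0.5 mg/mL) with 50 μM ATP, 180 min at 37° C., in presence of inhibitor. ADP formed detected by ADP-Glo luminescence; IC50 from four-parameter logistic fit.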

EGFR = biological target: T2, EGFR (Homo sapiens, UniProt P00533); assay: In vitro kinase panel: EGFR; assay type: biochemical; settings: Table 9 kinase panel
T2 construct: purchased SignalChem E10-11G
T2 sequence (P00533 672-1210 limits assumed): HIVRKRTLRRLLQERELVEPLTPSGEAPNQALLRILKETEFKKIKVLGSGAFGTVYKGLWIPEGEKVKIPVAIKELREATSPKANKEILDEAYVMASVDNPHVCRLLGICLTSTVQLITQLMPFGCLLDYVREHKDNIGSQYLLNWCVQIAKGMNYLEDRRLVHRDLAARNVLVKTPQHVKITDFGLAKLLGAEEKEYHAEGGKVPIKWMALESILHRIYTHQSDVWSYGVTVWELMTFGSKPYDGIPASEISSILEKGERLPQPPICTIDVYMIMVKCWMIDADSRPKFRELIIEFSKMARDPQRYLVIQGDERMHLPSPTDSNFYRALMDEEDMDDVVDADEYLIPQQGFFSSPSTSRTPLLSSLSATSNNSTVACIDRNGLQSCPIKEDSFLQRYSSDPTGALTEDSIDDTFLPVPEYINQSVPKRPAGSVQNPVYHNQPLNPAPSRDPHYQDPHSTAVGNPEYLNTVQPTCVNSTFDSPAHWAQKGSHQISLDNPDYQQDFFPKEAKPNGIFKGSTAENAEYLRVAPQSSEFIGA
Experimental: (§1) The measurements were carried out in a 25 μL reaction volume using a 96-well plate (Corning, #3642). The kinase enzyme and inhibitor were pre-incubated for 10 minutes in the reaction buffer containing 25 mM of MOPS (pH 7.2), 12.5 mM of 0-glycerophosphate, 27 mM of MgCl2, 2 mM of MnCl2, 5 mM of EGTA, 2 mM of EDTA, 0.3 mM of DTT, and 1.2 mg/mL of bovine serum albumin. Staurosporine (Abcam Biochemicals, ab146588) was used as a reference inhibitor and 0.1% DMSO in the reaction buffer—as a negative control. The solution of 0.5 mg/mL peptide substrate and 50 &M ATP in the same buffer were added; the solution was incubated for 180 minutes at 37° C. To detect the amount of ATP taken up during the kinase reaction, the equivalent amount of ADP (from the ADP Glo Detection Kit (Promega, #V9101)) was used according to the protocol. The reaction mixture was equilibrated to room temperature. 25 µL of ADP-Glo Reagent were added into each well; the plate was incubated for 40 minutes. 50 μL of Kinase Detection Reagent were added; the plate was incubated for 30 minutes. The luminescence was measured with multimode plate reader (Tecan Infinite M200Pro, Switzerland). IC50 values were calculated using Magellan 7.2 software (Tecan, Switzerland) approximating experimental points by four-parameter logistic model with the optimization by Levenberg-Marquardt.
(§2) For active compounds selected by screening using the target enzyme BTK, the values of IC50 were determined on a kinase panel: EGFR (SignalChem, #E10-11G), ITK (SignalChem, #I13-10G) and TEC (SignalChem, #T03-10G).

ITK = biological target: T3, ITK (Homo sapiens, UniProt Q08881); assay: In vitro kinase panel: ITK; assay type: biochemical; settings: Table 9 kinase panel
T3 construct: purchased SignalChem I13-10G
T3 sequence (Q08881 1-620): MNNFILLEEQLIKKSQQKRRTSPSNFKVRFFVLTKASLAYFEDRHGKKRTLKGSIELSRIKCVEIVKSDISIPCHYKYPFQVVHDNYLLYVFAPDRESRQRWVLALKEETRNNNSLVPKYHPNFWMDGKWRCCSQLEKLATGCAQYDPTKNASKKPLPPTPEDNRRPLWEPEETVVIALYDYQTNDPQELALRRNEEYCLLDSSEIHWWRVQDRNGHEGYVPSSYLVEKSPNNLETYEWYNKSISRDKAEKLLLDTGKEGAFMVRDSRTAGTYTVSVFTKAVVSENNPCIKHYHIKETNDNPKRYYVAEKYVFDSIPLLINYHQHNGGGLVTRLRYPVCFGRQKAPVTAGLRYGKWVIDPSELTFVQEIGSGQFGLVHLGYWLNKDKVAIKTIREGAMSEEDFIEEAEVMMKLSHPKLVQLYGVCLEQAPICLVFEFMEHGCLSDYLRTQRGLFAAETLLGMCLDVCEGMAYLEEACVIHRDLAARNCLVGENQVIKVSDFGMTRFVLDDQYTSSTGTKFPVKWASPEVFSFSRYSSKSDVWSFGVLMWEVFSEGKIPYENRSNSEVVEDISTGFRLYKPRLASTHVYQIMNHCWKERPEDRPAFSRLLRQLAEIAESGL
Experimental: as §1, §2

[2] = General cytotoxicity on HepG2 cells (CC50; therapeutic index CC50 HepG2/IC50 Mino); assay type: cell-based; settings: human, HepG2 cells (hepatocellular carcinoma), 72 hours, Alamar Blue
How it was run: (§3)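 Cells seeded at 2*10^4 per well in DMEM, compounds added after 24 h at 200 μM to 4 μM final and incubated 72 h. Viability read with Alamar Blue to derive CC50; therapeutic index is CC50 (HepG2) divided by IC50 (Mino).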

[3] = tested on: HepG2 cells (hepatocellular carcinoma); assay: as above; assay type: cell-based; settings: therapeutic index
How it was run: as §3

[4] = Table 10, average of several tests

| SMILES | IC50 ([1]; Table 8, ADP-Glo) [nM] | IC50 (EGFR) [nM] | IC50 (ITK) [nM] | CC50 at 72 h [2, 4] [nM] | CC50 (HepG2)/IC50 (Mino) ([3]; Table 10) | IC50 ([1]; Table 9 kinase panel) [nM] | CC50 at 72 h ([2]; Table 11) [nM] | CC50 (HepG2)/IC50 (Mino) ([3]; Table 11) |
| --- | --- | --- | --- | --- | --- | --- | --- | --- |
| C=CC(=O)N1CCC[C@@H](n2nc(-c3ccc(C(=O)Nc4ccccn4)cc3)c3c(N)nccc32)C1 [BCD-BTK-242, (R)-4-(1-(1-acryloylpiperidin-3-yl)-4-amino-1H-pyrazolo[4,3-c]pyridin-3-yl)-N-(pyridin-2-yl)benzamide] | 1.77 | 1.32 | 11 | 52500 | 3.03 |  |  |  |
| C=CC(=O)N1CCC[C@@H](n2nc(-c3ccc(C(=O)Nc4cc(C(F)(F)F)ccn4)cc3)c3c(N)ncc(Cl)c32)C1 [BCD-BTK-251, (R)-4-(1-(1-acryloylpiperidin-3-yl)-4-amino-7-chloro-1H-pyrazolo[4,3-c]pyridin-3-yl)-N-(4-(trifluoromethyl)pyridin-2-yl)benzamide] | 2.71 | 8.83 | 10.1 | > 50000 | >13.70 |  |  |  |
| C=CC(=O)N1CCC[C@@H](n2nc(-c3ccc(Oc4ccncc4)cc3)c3cncc(Cl)c32)C1 [BCD-BTK-125, (R)-1-(1-acryloylpiperidin-3-yl)-7-chloro-3-(4-(pyridin-4-yloxy)phenyl)-1H-pyrazolo[4,3-c]pyridine] |  | > 1000 | > 1000 |  |  | 109 | 27100 | 4.18 |
| C=CC(=O)N1CCC[C@@H](n2nc(-c3ccc(C(=O)Nc4cc(C(F)(F)CCC)ccn4)cc3)c3cncc(Cl)c32)C1 [BCD-BTK-252, (R)-4-(1-(1-acryloylpiperidin-3-yl)-7-chloro-1H-pyrazolo[4,3-c]pyridin-3-yl)-N-(4-(1,1-difluorobutyl)pyridin-2-yl)benzamide] | 14.6 | > 500 | > 1000 | > 100000 | >22.43 |  |  |  |
| C=CC(=O)N1CCC[C@@H](n2nc(-c3ccc(Oc4ccncc4)cc3)c3c(N)ncc(Cl)c32)C1 [BCD-BTK-139, (R)-1-(1-acryloylpiperidin-3-yl)-7-chloro-3-(4-(pyridin-4-yloxy)phenyl)-1H-pyrazolo[4,3-c]pyridin-4-amine] |  | 48.8 | 200 |  |  | 0.85 | 39600 | 3.88 |
| C=CC(=O)N1CCC[C@@H](n2nc(-c3ccc(C(=O)Nc4ccccn4)cc3)c3c(N)ncc(OC)c32)C1 [BCD-BTK-240, (R)-4-(1-(1-acryloylpiperidin-3-yl)-4-amino-7-methoxy-1H-pyrazolo[4,3-c]pyridin-3-yl)-N-(pyridin-2-yl)benzamide] | 2.25 | 2.41 | 7.78 | > 100000 | >7.11 |  |  |  |
| C=CC(=O)N1CCC[C@@H](n2nc(-c3ccc(Oc4cccnc4C(N)=O)cc3)c3cncc(Cl)c32)C1 [BCD-BTK-220, 3-(4-{7-chloro-1-[(3R)-1-(prop-2-enoyl)piperidin-3-yl]-1H-pyrazolo[4,3-c]pyridin-3-yl}phenoxy)pyridine-2-carboxamide] | 53.5 | 820 | > 300 | > 50000 | >9.51 |  |  |  |
| C=CC(=O)N1CCC[C@@H](n2nc(-c3ccc(C(=O)Nc4ncccc4F)cc3)c3c(N)ncc(C#N)c32)C1 [BCD-BTK-258, 4-{4-amino-7-cyano-1-[(3R)-1-(prop-2-enoyl)piperidin-3-yl]-1H-pyrazolo[4,3-c]pyridin-3-yl}-N-(3-fluoropyridin-2-yl)benzamide] | 1.17 | 18.6 | 33.3 | > 50000 | >2.89 |  |  |  |
| C=CC(=O)N1CCC[C@@H](n2nc(-c3ccc(Oc4cccnc4C#N)cc3)c3cncc(F)c32)C1 [BCD-BTK-230, (R)-3-(4-(1-(1-acryloylpiperidin-3-yl)-7-fluoro-1H-pyrazolo[4,3-c]pyridin-3-yl)phenoxy)picolinonitrile] | 10.5 | > 500 | > 1000 | 57600 | 5.87 |  |  |  |
| C=CC(=O)N1CCC[C@@H](n2nc(-c3ccc(C(=O)Nc4ccccn4)cc3)c3c(N)ncc(C#N)c32)C1 [BCD-BTK-234, (R)-4-(1-(1-acryloylpiperidin-3-yl)-4-amino-7-cyano-1H-pyrazolo[4,3-c]pyridin-3-yl)-N-(pyridine-2-yl)benzamide] | 1.17 | 1.8 | 25.4 | 36600 | 3.81 |  |  |  |
| C=CC(=O)N1CCC[C@@H](n2nc(-c3ccc(Oc4ccncc4C#N)cc3)c3cncc(Cl)c32)C1 [BCD-BTK-202, (R)-4-(4-(1-(1-acryloylpiperidin-3-yl)-7-chloro-1H-pyrazolo[4,3-c]pyridin-3-yl)phenoxy)nicotinonitrile] | 74.6 | > 500 | > 500 | 32000 | 4.10 |  |  |  |
| C=CC(=O)N1CCC[C@@H](n2nc(-c3cnc(C(=O)Nc4cc(C(F)(F)CCC)ccn4)nc3)c3cncc(Cl)c32)C1 [BCD-BTK-292, (R)-5-(1-(1-acryloylpiperidin-3-yl)-7-chloro-1H-pyrazolo[4,3-c]pyridin-3-yl)-N-(4-(1,1-difluorobutyl)pyridin-2-yl)pyrimidine-2-carboxamide] | 7.34 | > 500 | 63.5 | > 100000 | >29.81 |  |  |  |
| C=CC(=O)N1CCC[C@@H](n2nc(-c3ccc(C(=O)Nc4ccccn4)cc3)c3cncc(Cl)c32)C1 [BCD-BTK-201] | 19.1 | 172 | > 300 | > 50000 | >4.20 |  |  |  |
| C=CC(=O)N1CCC[C@@H](n2nc(-c3ccc(Oc4ccncc4)cc3)c3c(N)ncc(OC)c32)C1 [BCD-BTK-239, (R)-1-(1-acryloylpiperidin-3-yl)-4-amine-7-methoxy-3-(4-(pyridin-4-yloxy)phenyl)-1H-pyrazolo[4,3-c]pyridine] | 2.38 | 10.5 | 24.9 | 60200 | 4.24 |  |  |  |
